Experimental data published in patent US11931424B2, “Combination MCL-1 inhibitors with anti-body drug conjugates” (Gilead Sciences, Inc., priority 2021, dated 2024).

Tested on: panel of breast cancer cell lines
Assay: Compound A with targeted agents and chemotherapies, 72-hour in vitro proliferation assays
Assay type: cell-based
Settings: compound A × partner, 72-hour proliferation

Question: `CC1(C)CCC(c2ccc(Cl)cc2)=C(CN2CCN(c3ccc(C(=O)NS(=O)(=O)c4ccc(N[C@H](CCN5CCOCC5)CSc5ccccc5)c(S(=O)(=O)C(F)(F)F)c4)cc3)CC2)C1` [ABT-263] was tested. Which “Best CI” value (AU565 cell line) did it give?
Answer: Its value is 0.61.

Question: What about the “Bliss Volume” value (AU565 cell line) of the same compound?
Answer: The value was 9.56.

Question: And the HSA volume (AU565 cell line)?
Answer: The HSA volume was 3.63.

Question: And the “Loewe Volume” value (AU565 cell line)?
Answer: Its value is 8.42.

Question: And the “Synergy Score” value (AU565 cell line)?
Answer: The value was 14.69.

Question: And the “Best CI” value (BT-20 cell line)?
Answer: Its value is 0.05.

Question: And the “Bliss Volume” value (BT-20 cell line)?
Answer: The value was 36.91.

Question: And the HSA volume (BT-20 cell line)?
Answer: Its HSA volume is 37.77.

Question: What about the “Loewe Volume” value (BT-20 cell line) of the same compound?
Answer: The value was 37.81.

Question: And the “Synergy Score” value (BT-20 cell line)?
Answer: The value was 84.06.

Question: What about the “Best CI” value (CAL-51 cell line) of the same compound?
Answer: The value was 0.09.

Question: And the “Bliss Volume” value (CAL-51 cell line)?
Answer: The value was 18.29.

Question: And the HSA volume (CAL-51 cell line)?
Answer: The HSA volume was 17.50.

Question: And the “Loewe Volume” value (CAL-51 cell line)?
Answer: Its value is 18.72.

Question: What about the “Synergy Score” value (CAL-51 cell line) of the same compound?
Answer: Its value is 39.59.

Question: And the “Best CI” value (CAL-85-1 cell line)?
Answer: The value was 0.17.

Question: And the “Bliss Volume” value (CAL-85-1 cell line)?
Answer: Its value is 13.36.

Question: And the HSA volume (CAL-85-1 cell line)?
Answer: The HSA volume was 16.06.

Question: What about the “Loewe Volume” value (CAL-85-1 cell line) of the same compound?
Answer: The value was 15.97.

Question: What about the “Synergy Score” value (CAL-85-1 cell line) of the same compound?
Answer: The value was 29.64.

Question: What about the “Best CI” value (CAL-120 cell line) of the same compound?
Answer: The value was 0.21.

Question: What about the “Bliss Volume” value (CAL-120 cell line) of the same compound?
Answer: The value was 15.10.

Question: And the HSA volume (CAL-120 cell line)?
Answer: Its HSA volume is 15.51.

Question: What about the “Loewe Volume” value (CAL-120 cell line) of the same compound?
Answer: Its value is 16.04.

Question: What about the “Synergy Score” value (CAL-120 cell line) of the same compound?
Answer: Its value is 24.96.

Question: And the “Best CI” value (CAL-148 cell line)?
Answer: Its value is 0.10.

Question: And the “Bliss Volume” value (CAL-148 cell line)?
Answer: Its value is 28.25.

Question: What about the HSA volume (CAL-148 cell line) of the same compound?
Answer: Its HSA volume is 22.50.

Question: What about the “Loewe Volume” value (CAL-148 cell line) of the same compound?
Answer: Its value is 27.96.

Question: And the “Synergy Score” value (CAL-148 cell line)?
Answer: The value was 51.82.

Question: And the “Best CI” value (CAMA-1 cell line)?
Answer: Its value is 0.14.

Question: What about the “Bliss Volume” value (CAMA-1 cell line) of the same compound?
Answer: The value was 19.67.

Question: And the HSA volume (CAMA-1 cell line)?
Answer: Its HSA volume is 17.49.

Question: And the “Loewe Volume” value (CAMA-1 cell line)?
Answer: Its value is 19.32.

Question: What about the “Synergy Score” value (CAMA-1 cell line) of the same compound?
Answer: Its value is 41.66.

Question: What about the “Best CI” value (DU-4475 cell line) of the same compound?
Answer: The value was 0.48.

Question: What about the “Bliss Volume” value (DU-4475 cell line) of the same compound?
Answer: Its value is 24.62.

Question: What about the HSA volume (DU-4475 cell line) of the same compound?
Answer: The HSA volume was 22.37.

Question: What about the “Loewe Volume” value (DU-4475 cell line) of the same compound?
Answer: Its value is 22.67.

Question: And the “Synergy Score” value (DU-4475 cell line)?
Answer: The value was 35.34.

Question: What about the “Best CI” value (EVSA-T cell line) of the same compound?
Answer: The value was 0.36.

Question: What about the “Bliss Volume” value (EVSA-T cell line) of the same compound?
Answer: Its value is 15.42.

Question: And the HSA volume (EVSA-T cell line)?
Answer: Its HSA volume is 14.19.

Question: What about the “Loewe Volume” value (EVSA-T cell line) of the same compound?
Answer: Its value is 14.63.

Question: What about the “Synergy Score” value (EVSA-T cell line) of the same compound?
Answer: The value was 28.16.

Question: What about the “Best CI” value (HCC38) of the same compound?
Answer: The value was 0.13.

Question: And the “Bliss Volume” value (HCC38)?
Answer: Its value is 27.10.

Question: What about the “Synergy Score” value (HCC38) of the same compound?
Answer: Its value is 37.11.

Question: What about the “Best CI” value (HCC70) of the same compound?
Answer: Its value is 0.03.

Question: What about the “Bliss Volume” value (HCC70) of the same compound?
Answer: The value was 44.63.

Question: What about the HSA volume (HCC70) of the same compound?
Answer: Its HSA volume is 44.49.

Question: And the “Loewe Volume” value (HCC70)?
Answer: Its value is 44.97.

Question: And the “Synergy Score” value (HCC70)?
Answer: Its value is 97.06.

Question: And the “Best CI” value (HCC1143 cell line)?
Answer: Its value is 0.05.

Question: What about the “Bliss Volume” value (HCC1143 cell line) of the same compound?
Answer: Its value is 27.56.

Question: And the HSA volume (HCC1143 cell line)?
Answer: Its HSA volume is 26.07.

Question: And the “Loewe Volume” value (HCC1143 cell line)?
Answer: Its value is 27.51.

Question: What about the “Synergy Score” value (HCC1143 cell line) of the same compound?
Answer: Its value is 43.54.

Question: And the “Best CI” value (HCC1569)?
Answer: Its value is 0.13.

Question: What about the “Bliss Volume” value (HCC1569) of the same compound?
Answer: Its value is 27.53.

Question: And the HSA volume (HCC1569)?
Answer: Its HSA volume is 24.55.

Question: What about the “Loewe Volume” value (HCC1569) of the same compound?
Answer: The value was 26.18.

Question: And the “Synergy Score” value (HCC1569)?
Answer: Its value is 46.64.

Question: And the “Best CI” value (HCC1806)?
Answer: The value was 0.03.

Question: What about the “Bliss Volume” value (HCC1806) of the same compound?
Answer: Its value is 45.40.

Question: What about the HSA volume (HCC1806) of the same compound?
Answer: Its HSA volume is 46.37.

Question: What about the “Loewe Volume” value (HCC1806) of the same compound?
Answer: Its value is 46.26.

Question: What about the “Synergy Score” value (HCC1806) of the same compound?
Answer: Its value is 90.68.

Question: What about the “Best CI” value (HCC1937) of the same compound?
Answer: The value was 0.18.

Question: What about the “Bliss Volume” value (HCC1937) of the same compound?
Answer: The value was 26.87.

Question: And the HSA volume (HCC1937)?
Answer: The HSA volume was 22.28.

Question: And the “Loewe Volume” value (HCC1937)?
Answer: Its value is 26.31.

Question: And the “Synergy Score” value (HCC1937)?
Answer: The value was 43.69.

Question: And the “Best CI” value (HCC1954)?
Answer: Its value is 0.03.

Question: What about the “Bliss Volume” value (HCC1954) of the same compound?
Answer: The value was 36.37.

Question: And the HSA volume (HCC1954)?
Answer: The HSA volume was 36.78.

Question: And the “Loewe Volume” value (HCC1954)?
Answer: Its value is 37.10.

Question: And the “Synergy Score” value (HCC1954)?
Answer: The value was 76.44.

Question: And the “Best CI” value (HCC2218)?
Answer: The value was 0.07.

Question: What about the “Bliss Volume” value (HCC2218) of the same compound?
Answer: Its value is 28.59.

Question: What about the HSA volume (HCC2218) of the same compound?
Answer: The HSA volume was 29.77.

Question: What about the “Loewe Volume” value (HCC2218) of the same compound?
Answer: The value was 28.05.

Question: And the “Synergy Score” value (HCC2218)?
Answer: The value was 59.76.

Question: What about the “Best CI” value (HDQ-P1) of the same compound?
Answer: The value was 0.09.

Question: What about the “Bliss Volume” value (HDQ-P1) of the same compound?
Answer: Its value is 27.19.

Question: What about the HSA volume (HDQ-P1) of the same compound?
Answer: The HSA volume was 27.41.

Question: And the “Loewe Volume” value (HDQ-P1)?
Answer: Its value is 28.17.

Question: What about the “Synergy Score” value (HDQ-P1) of the same compound?
Answer: Its value is 52.33.

Question: And the “Best CI” value (HMC-1-8)?
Answer: Its value is 0.20.

Question: What about the “Bliss Volume” value (HMC-1-8) of the same compound?
Answer: Its value is 13.21.

Question: And the HSA volume (HMC-1-8)?
Answer: Its HSA volume is 10.36.

Question: What about the “Loewe Volume” value (HMC-1-8) of the same compound?
Answer: Its value is 11.80.

Question: What about the “Synergy Score” value (HMC-1-8) of the same compound?
Answer: The value was 21.09.

Question: What about the “Best CI” value (JIMT-1) of the same compound?
Answer: The value was 0.18.

Question: What about the “Bliss Volume” value (JIMT-1) of the same compound?
Answer: Its value is 18.71.

Question: What about the HSA volume (JIMT-1) of the same compound?
Answer: Its HSA volume is 12.60.

Question: What about the “Loewe Volume” value (JIMT-1) of the same compound?
Answer: Its value is 14.35.

Question: And the “Synergy Score” value (JIMT-1)?
Answer: The value was 19.55.

Question: What about the “Best CI” value (KPL-1) of the same compound?
Answer: The value was 0.14.

Question: What about the “Synergy Score” value (KPL-1) of the same compound?
Answer: The value was 13.50.
